Laboratory results reported in patent US7563813B2, “Iminothiazolidinone derivatives as SFRP-1 antagonists” (Wyeth, priority 2005, dated 2009).

Biological target: T1, hSFRP-1 (Homo sapiens, UniProt Q8N474)
T1 construct: expressed in transfected cells; host or cells: U2OS osteosarcoma cells (ATCC, HTB 96), transient co-transfection with Wnt 3, Wnt3A or Wnt 1, 16x TCF-tk-Luciferase reporter and CMV-beta-gal
T1 sequence (Q8N474 32-314): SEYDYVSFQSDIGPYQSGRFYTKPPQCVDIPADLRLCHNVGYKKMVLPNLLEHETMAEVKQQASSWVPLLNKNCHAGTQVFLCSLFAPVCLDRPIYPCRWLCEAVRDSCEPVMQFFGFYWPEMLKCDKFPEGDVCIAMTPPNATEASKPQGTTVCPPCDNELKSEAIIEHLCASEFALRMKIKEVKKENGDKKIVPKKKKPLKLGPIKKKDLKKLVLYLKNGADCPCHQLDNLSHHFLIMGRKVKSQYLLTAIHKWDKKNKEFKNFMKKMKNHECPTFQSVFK
Assay: Cell-Based Assay for In Vitro Measurement of SFRP-1/SARP2 Antagonist Activity (U2OS cells, 16x TCF-tk-Luciferase reporter, Wnt + hSFRP-1 co-transfection)
Settings: initial single dose screening at 10 μM; for fold induction at 10 µM: luciferase reporter activity, fold induction over SFRP-1 control; for Ratio: ratio not defined
Protocol: Cell-Based Assay for In Vitro Measurement of SFRP-1/SARP2 Antagonist Activity
The following cell-based assay can be used to identify inhibitors of SFRP-1.
The osteosarcoma cell line, U2OS (ATCC, HTB 96), was passaged twice a week with growth medium (McCoy's SA medium containing 10% (v/v) fetal calf serum, 2 mM GlutaMAX-1, and 1% (v/v) Penicillin-Streptomycin). The cells were maintained in vented flasks at 37° C. inside a 5% CO2/95% humidified air incubator. One day prior to transfection, the cells were plated with growth medium at 25,000 cells/well into 96-well plates and incubated at 37° C. overnight.
The growth medium was removed, and the cells were washed once with OPTIMEM I (Gibco-BRL) medium (100 μl/well) to remove the serum and antibiotics. The wash medium was removed, and the cells were re-fed with OPTI-MEM I medium (100 μl/well). For each well of cells to be transfected, the following DNA's were diluted together in 25 μl OPTI-MEM I medium: 0.1 μg 16× TCF-tk-Luciferase reporter, 0.02 μg Wnt 3, Wnt3A, Wnt 1 or empty vector (Upstate Biotechnology), 0.075 μg hSFRP-1 or empty vector (pcDNA3.1, Invitrogen), and 0.025 μg CMV-®gal (Clonetech). For each well of cells to be transfected, 1 μl of Lipofectamine 2000 reagent (Invitrogen) was diluted in 25 μl OPTI-MEM I medium and incubated at room temperature for 5 minutes. The diluted DNA's were then combined with the diluted Lipofectamine 2000 (LF2000), and the mixture was incubated at room temperature for 20 minutes. Fifty μl of the DNA-LF 2000 mixture was added to each well, and the plate(s) were incubated at 37° C. in a 5% CO2/95% humidified air incubator for 4 hours. The cells were washed once with 150 μl/well of experimental medium (phenol red-free RPMI Medium 1640 containing 2% fetal bovine serum, 2 mM GlutaMAX-1, and 1% Penicillin-Streptomycin). Finally, the cells were treated overnight at 37° C. with 200 μl/well of experimental medium containing either vehicle (typically DMSO) or diluted compound in replicates of 8 wells/compound.
Initial single dose screening of test compounds was done at 10 μM.
Dose-response experiments were initially performed with the compounds in log increases from 1-10,000 nM. From these dose-response curves, EC50 values were generated.
After treatment, the cells were washed twice with 150 μl/well of PBS without calcium or magnesium and were lysed with 50 μl/well of 1× cell culture lysis reagent (Promega Corporation) on a shaker at room temperature for 30 minutes. Thirty μl aliquots of the cell lysates were transferred to 96-well luminometer plates, and luciferase activity was measured in a MicroLumat PLUS luminometer (EG&G Berthold), or a Victor (PerkinElmer Life Sciences) using […] of luciferase substrate (Promega Corporation). Following the injection of substrate, luciferase activity was measured for 10 seconds after a 1.6 second delay. Similarly, 10 μl aliquots of the cell lysates were transferred to separate 96-well luminometer plates, and 50 μl of Galacton chemiluminescent substrate (Tropix) was added to each well. The plates were covered and incubated on a rotary shaker at room temperature for one hour. ®gal activity was measured in a MicroLumat PLUS luminometer or Victor using 100 μl/well of Light Emission Accelerator (Tropix). Following the injection of the accelerator, ®gal activity was measured for 10 seconds after a 1.6 second delay. The luciferase and ®gal activity data were transferred from the luminometer to a PC and analyzed using the SAS/Excel program. After the luciferase activity was normalized to ®gal, the SAS/Excel program was used to determine the mean and standard deviation of each treatment, to analyze the data for statistical significance, and to determine EC50 values.
As an alternative to co-transfection in a 96 well plate, the U2OS cells were transfected in T225 flasks and the transfected cells were frozen. The frozen cells were thawed and plated on a 96 well plate and the assay was carried out as detailed above. […]

Row | Compound | fold induction at 10 µM | Ratio
1 | CCOC(=O)c1c(NC(=O)CC2SC(N)=NC2=O)sc(C)c1C (centres unmarked) [Example 1, Ethyl 2-{[(2-amino-4-oxo-4,5-dihydro-1,3-thiazol-5-yl)acetyl]amino}-4,5-dimethylthiophene-3-carboxylate] | 2.5 | 2.5
2 | N=C1NC(=O)C(CC(=O)Nc2cccc(Br)c2)S1 (centres unmarked) [Example 2, N-(3-bromophenyl)-2-(2-imino-4-oxo-1,3-thiazolidin-5-yl)acetamide] | 2 | 1.8
3 | N=C1NC(=O)C(CC(=O)Nc2cccc(F)c2)S1 (centres unmarked) [Example 3, N-(3-fluorophenyl)-2-(2-imino-4-oxo-1,3-thiazolidin-5-yl)acetamide] | 1.5 | 1.3
4 | N#Cc1cccc(NC(=O)CC2SC(=N)NC2=O)c1 (centres unmarked) [Example 4, N-(3-cyanophenyl)-2-(2-imino-4-oxo-1,3-thiazolidin-5-yl)acetamide] | 1.3 | 1.2
5 | CC(=O)Nc1cccc(NC(=O)CC2SC(=N)NC2=O)c1 (centres unmarked) [Example 5, N-[3-(acetylamino)phenyl]-2-(2-imino-4-oxo-1,3-thiazolidin-5-yl)acetamide] | 1.3 | 1.2
6 | N=C1NC(=O)C(CC(=O)Nc2ccc(Cl)c(Cl)c2)S1 (centres unmarked) [Example 6, N-(3,4-dichlorophenyl)-2-(2-imino-4-oxo-1,3-thiazolidin-5-yl)acetamide] | 1.7 | 1.7
7 | N=C1NC(=O)C(CC(=O)Nc2ccc(Cl)cc2Cl)S1 (centres unmarked) [Example 7, N-(2,4-dichlorophenyl)-2-(2-imino-4-oxo-1,3-thiazolidin-5-yl)acetamide] | 1 | 1.0
8 | N=C1NC(=O)C(CC(=O)Nc2cccc(F)c2F)S1 (centres unmarked) [Example 8, N-(2,3-difluorophenyl)-2-(2-imino-4-oxo-1,3-thiazolidin-5-yl)acetamide] | 1.1 | 1.0
9 | N=C1NC(=O)C(CC(=O)Nc2ccc(F)c(F)c2)S1 (centres unmarked) [Example 9, N-(3,4-difluorophenyl)-2-(2-imino-4-oxo-1,3-thiazolidin-5-yl)acetamide] | 1.6 | 1.5
10 | N=C1NC(=O)C(CC(=O)Nc2cccc(Cl)c2)S1 (centres unmarked) [Example 10, N-(3-chlorophenyl)-2-(2-imino-4-oxo-1,3-thiazolidin-5-yl)acetamide] | 2.2 | 2.2
11 | N=C1NC(=O)C(CC(=O)Nc2ccc(F)c(Cl)c2)S1 (centres unmarked) [Example 11, N-(3-chloro-4-fluorophenyl)-2-(2-imino-4-oxo-1,3-thiazolidin-5-yl)acetamide] | 1.9 | 1.7
12 | N=C1NC(=O)C(CC(=O)NCc2ccc(C(F)(F)F)cc2)S1 (centres unmarked) [Example 12, 2-(2-imino-4-oxo-1,3-thiazolidin-5-yl)-N-[4-(trifluoromethyl)benzyl]acetamide] | 1.1 | 1.0

More lines, now with the values ahead:

Row | fold induction at 10 µM | Ratio | Compound
13 | 1 | 1.0 | Cc1cc(NC(=O)CC2SC(=N)NC2=O)on1 (centres unmarked) [Example 13, 2-(2-imino-4-oxo-1,3-thiazolidin-5-yl)-N-(3-methylisoxazol-5-yl)acetamide]
14 | 1.8 | 1.6 | C#Cc1cccc(NC(=O)CC2SC(=N)NC2=O)c1 (centres unmarked) [Example 14, N-(3-ethynylphenyl)-2-(2-imino-4-oxo-1,3-thiazolidin-5-yl)acetamide]
15 | 1.5 | 1.2 | CSc1cccc(NC(=O)CC2SC(=N)NC2=O)c1 (centres unmarked) [Example 15, 2-(2-imino-4-oxo-1,3-thiazolidin-5-yl)-N-[3-(methylthio)phenyl]acetamide]
16 | 2 | 1.9 | CCOC(=O)c1c(C)csc1NC(=O)CC1SC(=N)NC1=O (centres unmarked) [Example 16, ethyl 2-{[(2-imino-4-oxo-1,3-thiazolidin-5-yl)acetyl]amino}-4-methylthiophene-3-carboxylate]
17 | 1.3 | 1.0 | N=C1NC(=O)C(CC(=O)Nc2ccccc2)S1 (centres unmarked) [Example 17, 2-(2-imino-4-oxo-1,3-thiazolidin-5-yl)-N-phenylacetamide]
18 | 1.2 | 1.1 | N=C1NC(=O)C(CC(=O)NCc2ccccc2)S1 (centres unmarked) [Example 18, N-benzyl-2-(2-imino-4-oxo-1,3-thiazolidin-5-yl)acetamide]
19 | 1.1 | 0.9 | N=C1NC(=O)C(CC(=O)NCc2cccc(C(F)(F)F)c2)S1 (centres unmarked) [Example 19, 2-(2-imino-4-oxo-1,3-thiazolidin-5-yl)-N-[3-(trifluoromethyl)benzyl]acetamide]
20 | 1.2 | 1.1 | N=C1NC(=O)C(CC(=O)NCc2ccccc2C(F)(F)F)S1 (centres unmarked) [Example 20, 2-(2-imino-4-oxo-1,3-thiazolidin-5-yl)-N-[2-(trifluoromethyl)benzyl]acetamide]
21 | 1.2 | 1.0 | N=C1NC(=O)C(CC(=O)NCc2ccc(Cl)cc2)S1 (centres unmarked) [Example 21, N-(4-chlorobenzyl)-2-(2-imino-4-oxo-1,3-thiazolidin-5-yl)acetamide]
22 | 1.2 | 1.0 | N=C1NC(=O)C(CC(=O)NCc2cccc(Cl)c2)S1 (centres unmarked) [Example 22, N-(3-chlorobenzyl)-2-(2-imino-4-oxo-1,3-thiazolidin-5-yl)acetamide]
23 | 1.2 | 1.0 | N=C1NC(=O)C(CC(=O)NCc2ccccc2Cl)S1 (centres unmarked) [Example 23, N-(2-chlorobenzyl)-2-(2-imino-4-oxo-1,3-thiazolidin-5-yl)acetamide]
24 | 1.2 | 1.0 | N=C1NC(=O)C(CC(=O)Nc2cccc(C(N)=O)c2)S1 (centres unmarked) [Example 24, 3-{[(2-imino-4-oxo-1,3-thiazolidin-5-yl)acetyl]amino}benzamide]
25 | 1.7 | 1.4 | CCOC(=O)c1cccc(NC(=O)CC2SC(=N)NC2=O)c1 (centres unmarked) [Example 25, ethyl 3-{[(2-imino-4-oxo-1,3-thiazolidin-5-yl)acetyl]amino}benzoate]
26 | 1.5 | 1.4 | N=C1NC(=O)C(CC(=O)Nc2cccc(Oc3ccccc3)c2)S1 (centres unmarked) [Example 26, 2-(2-imino-4-oxo-1,3-thiazolidin-5-yl)-N-(3-phenoxyphenyl)acetamide]
27 | 1.8 | 1.5 | N=C1NC(=O)C(CC(=O)Nc2cccc(C(=O)c3ccccc3)c2)S1 (centres unmarked) [Example 27, N-(3-benzoylphenyl)-2-(2-imino-4-oxo-1,3-thiazolidin-5-yl)acetamide]
28 | 1.2 | 1.0 | N=C1NC(=O)C(CC(=O)Nc2cccc(Cl)c2Cl)S1 (centres unmarked) [Example 28, N-(2,3-dichlorophenyl)-2-(2-imino-4-oxo-1,3-thiazolidin-5-yl)acetamide]
